Patent publication EP0449955B1, “SYNTHETIC HIV-LIKE PEPTIDES, THEIR COMPOSITIONS AND USES” (CLARITY TECHNOLOGIES INCORPORATED, priority 1988, dated 1996)
Entries after “also recorded” stand apart in the source; their conditions may differ.

What was measured:
antibodies to HIV-1 [1] = test: EIA of HIV-1 gp41 peptide-protein conjugates against serum pools; format: binding, human; conditions: peptide conjugated via C-terminus to BSA (SMCC), coated at 10 micrograms peptide/ml; 1:101 dilution of HIV+ serum pool; Figure 1
Method: (§1) The free peptides or peptide-protein conjugates of Figures 1-13 were initially screened for immunoreactivity by coating each well of polystyrene microtiter EIA plates (Costar, Cambridge, Massachusetts, U.S.A.) with 0.2 ml amounts of concentrations of 5-50 micrograms/ml peptide in Tris buffer, 10 mM, pH 8.0, at 4°C overnight. Peptides or peptide-protein conjugates showing immunoreactivity by EIA were then further diluted for coating to determine the minimal concentrations required that allowed maximal immunoreactivity with antibodies to HIV, and minimal nonspecific reactivity with normal sera. The EIA tests were performed as follows: The coating solution was removed from each well and the wells were blocked at 37°C for 30 minutes with a solution of 50 mM phosphate, 100 mM NaCl, pH 7.4, 1% BSA, 0.5% gelatin. The wells were then aspirated dry with a microtiter plate washer and washed 3 times with a solution of 50 mM phosphate, 100 mM NaCl, .05% Tween 20, (trademark) pH 7.4 (PBST). A 1:101 dilution (in PBST with 1% BSA, 1% NRS) of the primate serum to be tested was then added as 0.2 ml to each washed well and the plates were incubated at 37°C for 30 minutes. The plates were then washed x 3 with PBST, and 0.2 ml amounts of a 1:2000 dilution of goat anti-human (GAH) peroxidase enzyme conjugate (Organon Teknika, Cappel, Melvern, Pennsylvania, U.S.A.) that recognized human IgG, IgA, and IgM were added to each well, and the plates were incubated for 30 minutes at 37°C. The plates were then washed x 3 with PBST and incubated with 0.2 ml/well substrate consisting of 0,1M citric acid pH 5.2, 0.1 mg/ml o-phenylene diamine, 0.01% H₂O₂, at room temperature in the dark for 10 minutes. Reactions were stopped with 50 microliters of 4N H₂SO₄, and the color development was quantitated in a Multiscan plate reader at A₄₉₂. In each series of experiments positive and negative controls were included, and all tests were done in duplicate or quadruplicate. Most peptides and peptide conjugates were initially screened against a 1:101 dilution of pools of HIV positive or HIV negative sera, and the same serum pool was used to allow quantitative comparison of immunoreactivity of different free peptides or peptide-protein conjugates.
The peptides in Figures 1 and 5 were synthesized as described in Example 1 and conjugated to KLH or BSA as described in Example 2. These peptide-protein conjugates were coated to polystyrene microtiter plates all at a concentration 10 micrograms peptide/ml and evaluated for immunoreactivity as described in Example 3, using a 1:101 dilution of a pool of sera (HIV+/SIV+, respectively) containing antibodies to HIV-1 (Figure 1) or to HIV-2 (Figure 5), as well as pooled serum (HIV-/SIV-, respectively) containing no antibodies to HIV-1 or HIV-2. […] Since sera from patients infected with HIV-2 are relatively unavailable in the United States, the immunoreactivity of HIV-2 synthetic peptides was assessed using serum from macaques infected with SIV, obtained from the University of Washington Primate Center, Seattle, Washington, U.S.A. The AA sequence of SIV is nearly identical to HIV-2 in the region of the peptides synthesized (see Myers et al., Human Retroviruses and AIDS, 1988. A compilation of nucleic acid and amino acid sequences. Los Alamos National Laboratory, Los Alamos, New Mexico, 87545, USA).

antibodies to HIV-1 [2] = test: EIA of peptide-carrier conjugates with individual human sera; format: binding; conditions: BSA-SMCC conjugate
Method: as §1
Figure 10A illustrates the immunoreactivity of synthetic natural peptides 2S06 and 2S09 (Figure 1) when conjugated via their C-terminal GC spacer to KLH using the heterobifunctional linker MBS. […] However, the immunoreactivity of many of the positives was low (A₄₉₂ less than 1.0), and some of the negative samples had A₄₉₂ values slightly above 0.20, resulting in minimal discrimination between negatives and positives. This poor discrimination led to a search for an improved carrier protein and/or linker.
Figure 10B illustrates the reactivity of synthetic natural peptide IWGCSGKLICTTAVPGC (2S09) when conjugated through its C-terminus to BSA via the heterobifunctional linker SMCC. […] Improvement in assay performance as compared with results of Example 5A is noted with respect to negative samples having lower A₄₉₂ values, and most positive samples having higher A₄₉₂ values. […] Because of the possibility that some of the low responsiveness might be due to antigenic differences of genetic variants in the region of this epitope, as reported for HIV isolates from Zaire (Gnann et al., Science 237:1346-1349, 1987), the natural sequence variant peptide 5S67 (Figure 3) was synthesized, chemically linked to BSA with SMCC, and tested against the same sera, plus one additional negative serum sample (Figure 10C). […] This instigated a search for unnatural sequence variants of peptide 2S09 that would retain high immunoreactivity with most sera that contained antibodies to HIV-1, and yet retain low reactivity with sera devoid of antibodies to HIV. […]

antibody to HIV-1 = test: EIA of p24 synthetic peptide-BSA conjugates with serum pools and individual sera; format: binding, human
Method: as §1
Figure 8 illustrates the immunoreactivity and AA sequences of synthetic peptides of the p24 protein of HIV-1, when conjugated to BSA via their C-termini using SMCC, and reacted with a pool of approximately 50 sera from persons containing antibody to HIV-1, or with a pool of approximately 30 sera from individuals devoid of antibody to HIV-1. […] No negative sera (0/85, 0%) reacted, and 17 positive sera (17/98, 17%) were immunoreactive. It has been reported that individuals lose antibodies to p24 during the course of progression from asymptomatic infection to clinical disease and AIDS (Franchini et al., Blood 69:(2):437-441, 1987, and Weber et al., Lancet i:119-122, 1987), which may explain the lower frequency of antibodies to this peptide in the sera tested.

antibodies to HIV-2 = test: EIA of HIV-2 peptide-BSA conjugates with macaque sera; format: binding; conditions: macaque sera containing or not containing antibodies to HIV-2, Figure 7
Method: The synthetic peptides of Figures 1-8 were reduced with 10mM DTT, or with immobilized DTT (Reductacryl, Calbiochem, San Diego, California, U.S.A., 10 mg Reductacryl per mg peptide) overnight at 4°C, pH8 in 10mM borate or other buffers depending upon peptide solubility, with gentle mixing. KLH was dissolved at a concentration of 10-30 mg/ml in 10 mM phosphate buffer pH 7.2., and BSA was dissolved at a concentration of 20-80 mg/ml for treatment with heterobifunctional linkers MBS (m-Maleimidobenzoyl-N-hydroxysuccinimide ester), SPDP [N-Succinimidyl 3-(2 pyridyldithio)propionate], or Sulfo-SMCC [Sulfo-Succinimidyl 4(N-maleimidomethyl)-cyclohexane-1-carboxylate]. The heterobifunctional linkers were added to the protein solutions in a molar excess of linker to BSA of 100, or of linker to KLH of 1000. MBS was dissolved in DMF at 10mg/ml, SPDP was dissolved in absolute ethanol at 10mg/ml and each of these was added dropwise with mixing into the protein solution, whereas the Sulfo-SMCC dry powder was dissolved into the protein solution. Each protein-linker mixture was reacted at room temperature for 15 minutes to 1 hour and then free linker was separated from BSA-linker or KLH-linker by gel chromatography with Sephadex G25 using 50mM phosphate, pH 6 for KLH-MBS, 10mM acetate, 100 mM Nacl, pH 4.6 for BSA-SPDP, or 100 mM phosphate, 1 mM EDTA, pH 6.5 for BSA-SMCC. The reduced peptides were separated from DTT by Sephadex G10 column chromatography when soluble DTT was used, or by centrifugation followed by filtration through a 0.22 micron filter when Reductacryl was used. Reduced peptides were combined with linker treated KLH or BSA in molar ratios of 100-1000 peptide/KLH-MBS, 1-50 peptide/BSA-SMCC, and 0.1-10 peptide/BSA-SPDP. Each reduced peptide was added to the linker-treated protein with mixing, overlayed with N₂, and then mixed gently at room temperature for one hour, and then overnight at 4°C. The SMCC-BSA conjugates were further treated with a 1 mM final concentration of mercaptoethylamine for 4 hours, and then dialyzed overnight against 100 volumes of buffer (20mM phosphate, 1 mM EDTA, 0.05% sodium azide, pH 6.5) at 4°C. All other conjugates were adjusted to a final concentration of sodium azide of 0.05%. Optimal molar ratios of peptide/protein for the conjugates were determined by solubility and antigenicity (as evaluated by EIA).
The free peptides or peptide-protein conjugates of Figures 1-13 were initially screened for immunoreactivity by coating each well of polystyrene microtiter EIA plates (Costar, Cambridge, Massachusetts, U.S.A.) with 0.2 ml amounts of concentrations of 5-50 micrograms/ml peptide in Tris buffer, 10 mM, pH 8.0, at 4°C overnight. […]

SIV/HIV-2 antibodies = test: EIA of HIV-2 gp32 peptide-protein conjugates against macaque serum pools; format: binding; conditions: peptide conjugated via C-terminus to BSA (SMCC), coated at 10 micrograms peptide/ml; 1:101 dilution of SIV+ macaque serum pool; Figure 5
Method: The free peptides or peptide-protein conjugates of Figures 1-13 were initially screened for immunoreactivity by coating each well of polystyrene microtiter EIA plates (Costar, Cambridge, Massachusetts, U.S.A.) with 0.2 ml amounts of concentrations of 5-50 micrograms/ml peptide in Tris buffer, 10 mM, pH 8.0, at 4°C overnight. Peptides or peptide-protein conjugates showing immunoreactivity by EIA were then further diluted for coating to determine the minimal concentrations required that allowed maximal immunoreactivity with antibodies to HIV, and minimal nonspecific reactivity with normal sera. The EIA tests were performed as follows: The coating solution was removed from each well and the wells were blocked at 37°C for 30 minutes with a solution of 50 mM phosphate, 100 mM NaCl, pH 7.4, 1% BSA, 0.5% gelatin. The wells were then aspirated dry with a microtiter plate washer and washed 3 times with a solution of 50 mM phosphate, 100 mM NaCl, .05% Tween 20, (trademark) pH 7.4 (PBST). […] Reactions were stopped with 50 microliters of 4N H₂SO₄, and the color development was quantitated in a Multiscan plate reader at A₄₉₂. […] Most peptides and peptide conjugates were initially screened against a 1:101 dilution of pools of HIV positive or HIV negative sera, and the same serum pool was used to allow quantitative comparison of immunoreactivity of different free peptides or peptide-protein conjugates.
The peptides in Figures 1 and 5 were synthesized as described in Example 1 and conjugated to KLH or BSA as described in Example 2. These peptide-protein conjugates were coated to polystyrene microtiter plates all at a concentration 10 micrograms peptide/ml and evaluated for immunoreactivity as described in Example 3, using a 1:101 dilution of a pool of sera (HIV+/SIV+, respectively) containing antibodies to HIV-1 (Figure 1) or to HIV-2 (Figure 5), as well as pooled serum (HIV-/SIV-, respectively) containing no antibodies to HIV-1 or HIV-2. […]

[3] = BSA-SMCC conjugate, 85 individual sera without antibodies to HIV-1
[4] = BSA-SMCC conjugate, 98 individual sera with antibodies to HIV-1

Sequence | immunoreactivity with HIV-1 antibodies (antibodies to HIV-1 [1]) | other results
LGIWGCSGKLICTTAGC [2S07] | Significant immunoreactivity | 
IKQLQARILAVERYLKDQQ [4S24, reference compound] | lower immunoreactivity | 
IWGCSGKMICTTAVPGC [5S76] |  | immunoreactivity with positive sera (antibodies to HIV-1 [2]; 98 sera containing antibodies to HIV-1, Figures 10B, 10C, 11): strong immunoreactivity with some sera that reacted weakly in Figure 10B; positive samples giving A492 less than 1.0 (antibodies to HIV-1 [2]; of 98 positive sera, Figure 11B): Five
LLGIWGCSGKLICTTGC [2S06] | Significant immunoreactivity | 
RILAVERYLKDQQLLGIWGCSGKLIC [4S25, reference compound] | lower immunoreactivity; also recorded: lower or comparable immunoreactivity; also recorded: Significant immunoreactivity | 
QQLLGIWGCSGKLICGC [3S36] | Significant immunoreactivity | 
KLICTTAVPWNASWSGC [2S15] | higher reactivity; also recorded: Significant immunoreactivity | 
ALGPAATLEEMMTACGC [5S94] |  | negative sera that reacted (antibody to HIV-1; [3]): 0/85; negative sera that reacted (percent) (antibody to HIV-1; [3]): 0%; positive sera immunoreactive (antibody to HIV-1; [4]): 17/98; positive sera immunoreactive (percent) (antibody to HIV-1; [4]): 17%; immunoreactivity with serum pools (antibody to HIV-1; BSA-SMCC conjugates, pool of approximately 50 positive sera and pool of approximately 30 negative sera, Figure 8): proved to be the immunoreactive peptide; also recorded: significant immunoreactivity
GKLICTTAVPWNASWGC [3S55] | higher reactivity; also recorded: Significant immunoreactivity | 
SWGCAFRQVCHTSVPGC [5S86] |  | discrimination of positive from negative samples (antibodies to HIV-2): most favorable performances
YLKDQQLLGIWGCSGC [2S03] | significantly less immunoreactive | 
CSGKLICTTAVPWNAGC [3S51] | higher reactivity; also recorded: Significant immunoreactivity | 
SGKLICTTAVPWNASGC [2S13] | higher reactivity; also recorded: Significant immunoreactivity | 
DQARLNSWGCAFRQVC [2S24] |  | discrimination of positive from negative samples (antibodies to HIV-2): most favorable performances; immunoreactivity with SIV/HIV-2 antibodies (SIV/HIV-2 antibodies): maximally immunoreactive; also recorded: Significant immunoreactivity; also recorded: best immunoreactivity
GCSGKLICTTAVPWNGC [2S11] | higher reactivity; also recorded: Significant immunoreactivity | 
SWGCAFRQVCHTTVPGC [2S27] |  | discrimination of positive from negative samples (antibodies to HIV-2): most favorable performances; immunoreactivity with SIV/HIV-2 antibodies (SIV/HIV-2 antibodies): maximally immunoreactive; also recorded: Significant immunoreactivity; also recorded: best immunoreactivity
ERYLKDQQLLGIIVGC [2S02] | significantly less immunoreactive | 
AVERYLKDQQLLGC [2S01] | significantly less immunoreactive | 
KDQQLLGIWGCSGKLGC [2S04] | Significant immunoreactivity | 
